Values of other authors as cited in patent publication US8772507B2, “Imidazole-benzamide anti-cancer agents” (Cytokinetics, Inc., priority 2004, dated 2014).
Like-named read-outs stand apart in the source and are kept apart here.

Test system: A549 cells

| GI50 | GI50 (no unit printed at this place) | SMILES |
| --- | --- | --- |
| 0.063 µM |  | COc1cccc2c1C(=O)c1c(O)c3c(c(O)c1C2=O)C[C@@](O)(C(=O)CO)C[C@@H]3O[C@H]1C[C@H](N)[C@H](O)[C@H](C)O1 [doxorubicin] |
| 500 µM |  | NC(=O)NO [hydroxyurea] |
| 0.004 µM |  | CC(=O)O[C@H]1C(=O)[C@@]2(C)[C@H]([C@H](OC(=O)c3ccccc3)[C@]3(O)C[C@H](OC(=O)[C@H](O)[C@@H](NC(=O)c4ccccc4)c4ccccc4)C(C)=C1C3(C)C)[C@]1(OC(C)=O)CO[C@@H]1C[C@@H]2O [paclitaxel] |
| 1 µM | 1 µM | O=c1[nH]cc(F)c(=O)[nH]1 [5-fluorouracil] |
